Values after ≈ are worked out from the molar mass of the structure shown.
How the values were obtained:
H9 [1] = assay: Concentration required for […] against acutely infected H9 cells; assay type: functional, cell-based; details: Homo sapiens
[2] = Evaluated for the therapeutic index value of the compound.; assay type: functional
H9 [3] = assay: Tested for anti-HIV activity against acutely infected H9 cells, activity expressed as EC50.; assay type: functional, cell-based; details: Homo sapiens

Row | IC50 (H9 [1]) | EC50 (H9 [3]) | Structure (SMILES) | Therapeutic index [2]
1 | 38 µg/mL (≈ 71.1 µM) | 2.5 µg/mL (≈ 4.68 µM) | CC(C)(O)CCC(=O)[C@](C)(O)C1[C@H](O)C(=O)[C@@]2(C)[C@@H]3CC=C4[C@@H](C[C@H](O)[C@@H](O)C4(C)C)[C@]3(C)C(=O)C[C@]12C (some centres not stated) | 15.2
2 | 5.1 µg/mL (≈ 9.57 µM) | 0.3 µg/mL (≈ 0.563 µM) | CC(C)(O)/C=C/C(=O)[C@](C)(O)C1[C@H](O)C(=O)[C@@]2(C)[C@@H]3CC=C4[C@@H](C[C@H](O)[C@@H](O)C4(C)C)[C@]3(C)C(=O)C[C@]12C (some centres not stated) | 17
3 | 9.3 µg/mL (≈ 17.9 µM) | 0.8 µg/mL (≈ 1.54 µM) | CC(C)(O)CCC(=O)[C@](C)(O)C1[C@H](O)C[C@@]2(C)[C@@H]3CC=C4[C@@H](C[C@H](O)[C@@H](O)C4(C)C)[C@]3(C)C(=O)C[C@]12C (some centres not stated) | 11.6

Row | Structure (SMILES) | IC50 (H9 [1]) | EC50 (H9 [3]) | Therapeutic index [2]
4 | CC(C)(O)/C=C/C(=O)[C@](C)(O)[C@H]1[C@H](O)C[C@@]2(C)[C@@H]3CC=C4[C@@H](C[C@H](O)[C@@H](O)C4(C)C)[C@]3(C)C(=O)C[C@]12C [CUCURBITACIN F] | 0.16 µg/mL (≈ 0.308 µM) | 0.06 µg/mL (≈ 0.116 µM) | 2.7

Source: ChEMBL document CHEMBL1127897, “Cucurbitacin F derivatives, anti-HIV principles from cowania mexicana” (Bioorg Med Chem Lett, 1994)
